Assay [1] has as its target T1, extracellular domain of the human erythropoietin receptor (EPO binding protein, EBP) (Homo sapiens, UniProt P19235).
T1 construct: made in house
T1 sequence (P19235 25-250 limits assumed): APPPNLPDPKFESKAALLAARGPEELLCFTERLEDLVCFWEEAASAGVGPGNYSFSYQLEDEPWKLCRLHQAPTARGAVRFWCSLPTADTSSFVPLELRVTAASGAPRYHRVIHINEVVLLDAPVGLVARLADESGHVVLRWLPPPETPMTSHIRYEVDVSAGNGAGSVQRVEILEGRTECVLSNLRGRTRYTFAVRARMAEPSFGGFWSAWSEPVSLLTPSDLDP
Briefly: Immobilized EBP based [125I]EPO competition binding assay. Particulars: IC50 relative to RWJ61233 (IC50 5 μM); cyclic peptides, COOH terminal amides. As for the experimental part:
The iodoacetyl activation chemistry of Sufolink beads (Pierce Chemical Co, Rockford, Ill.) is specific for free thiols and assures that the linkage is not easily reversible. EBP-Sulfolink beads were made as follows: SulfoLink gel suspension (10 ml) was mixed with coupling buffer (40 ml: 50 mM Tris, pH 8.3, 5 mM EDTA) and the gel was allowed to settle. The supernatant was removed and the EBP (0.3-1 mg/ml in coupling buffer) to be bound was added directly to the washed beads. The mixture was rocked gently for 30 minutes at room temperature, and the beads were allowed to settle for 1 hour at room temperature. […] The amount of EBP which was covalently bound to the beads was determined by comparing the OD280 of the original EBP solution to the total OD280 recovered in the reaction supernatant and the two 20 ml washes.
Binding assays were initiated by the addition of EBP beads (50 μl) to individual reaction tubes. […] The tubes were incubated for five hours (a time period experimentally determined as adequate for the establishment of equilibrium) at room temperature with gentle rocking. […]
Competitive binding analysis assays of candidate peptides were performed as outlined below. […] The columns containing the washed beads were placed in 12×75 mm glass tubes and bound radioactivity levels were determined using a gamma counter.

Assay [2] concerns the target T2, truncated human erythropoietin receptor cell line (Homo sapiens, UniProt P19235).
T2 sequence (P19235 25-468 limits assumed): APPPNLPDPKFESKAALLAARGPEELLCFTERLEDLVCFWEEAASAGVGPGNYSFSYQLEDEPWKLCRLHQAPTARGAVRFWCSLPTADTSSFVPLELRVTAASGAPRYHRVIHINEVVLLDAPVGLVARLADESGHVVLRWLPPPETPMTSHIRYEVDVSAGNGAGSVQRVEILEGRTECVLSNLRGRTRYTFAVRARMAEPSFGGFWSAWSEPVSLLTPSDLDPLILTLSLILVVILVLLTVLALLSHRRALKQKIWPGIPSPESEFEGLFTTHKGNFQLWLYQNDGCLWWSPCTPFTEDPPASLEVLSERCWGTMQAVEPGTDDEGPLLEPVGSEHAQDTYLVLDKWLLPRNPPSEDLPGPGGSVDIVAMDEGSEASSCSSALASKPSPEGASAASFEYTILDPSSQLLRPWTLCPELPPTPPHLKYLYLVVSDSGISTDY
Briefly: cell-based.
Experimental: Cells are harvested and resuspended in fresh medium without growth factor (erytiropoietin) for 24 hr. Cells are counted and resuspended at a concentration of 800,000 cells/ml. Approximately forty thousand cells (50μ) are added to each well of a 96 well microtiter plate. Peptide is added to each well in triplicate. A standard dose response determination is run with each series of peptides. After a forty-two hr incubation (≈2 doubling), each well is pulsed with 1 μCi/well Thymidine. Cells are incubated an additional six hr at which time cells are harvested and counted to assess thymidine incorporation as an indicator of cell proliferation.

Assay [3] deals with T3, murine receptor (FDC-P1/ER cells) (Mus musculus, UniProt P14753).
T3 sequence (P14753 25-507): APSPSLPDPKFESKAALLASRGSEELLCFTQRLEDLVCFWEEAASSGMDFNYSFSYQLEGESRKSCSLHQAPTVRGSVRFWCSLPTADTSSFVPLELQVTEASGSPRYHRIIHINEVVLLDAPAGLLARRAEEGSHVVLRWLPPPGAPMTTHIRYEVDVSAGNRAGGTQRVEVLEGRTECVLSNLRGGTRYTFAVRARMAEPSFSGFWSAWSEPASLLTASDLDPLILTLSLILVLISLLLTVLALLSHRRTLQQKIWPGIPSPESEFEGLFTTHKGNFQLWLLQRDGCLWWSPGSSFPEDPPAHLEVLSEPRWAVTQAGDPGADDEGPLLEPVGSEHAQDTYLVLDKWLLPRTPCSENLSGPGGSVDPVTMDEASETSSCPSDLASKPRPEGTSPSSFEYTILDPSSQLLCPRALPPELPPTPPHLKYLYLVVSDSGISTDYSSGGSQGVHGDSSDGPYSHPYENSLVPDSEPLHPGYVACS
Put plainly: cell-based. Particulars: IA = inactive.

Assay [4] concerns the target T4, FDCP-1/hEPO-R cells (human EPO-R) (Homo sapiens, UniProt P19235).
T4 sequence (P19235 25-508): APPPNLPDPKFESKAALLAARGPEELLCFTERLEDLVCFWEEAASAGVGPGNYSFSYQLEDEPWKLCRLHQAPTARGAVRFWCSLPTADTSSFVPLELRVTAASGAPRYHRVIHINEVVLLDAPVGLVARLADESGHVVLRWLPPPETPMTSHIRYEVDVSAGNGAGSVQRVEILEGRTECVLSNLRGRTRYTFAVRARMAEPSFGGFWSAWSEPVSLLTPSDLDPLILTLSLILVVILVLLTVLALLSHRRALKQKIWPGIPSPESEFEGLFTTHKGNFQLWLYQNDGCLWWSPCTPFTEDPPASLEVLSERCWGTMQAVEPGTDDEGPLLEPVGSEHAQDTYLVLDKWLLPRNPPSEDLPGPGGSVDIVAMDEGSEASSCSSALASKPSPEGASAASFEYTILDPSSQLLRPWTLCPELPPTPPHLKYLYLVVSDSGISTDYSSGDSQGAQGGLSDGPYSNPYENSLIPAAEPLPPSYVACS
Put plainly: cell-based. As for the experimental part:
One assay utilized FDCP-1, a growth factor depenent murne multi-potential primitive hematopoietic progenitor cell line (see, e.g., Dexter et al. (1980) J. Exp. Med. 152:1036-1047), as the parental cell line. This cell line can proliferate, but not differentiate, when supplemented with WEHI3-conditioned media (a medium that contains IL-3, ATCC number T1B68).
In brief, the cells are grown to half stationary density in the presence of the necessary growth factors. The cells are then washed in PBS and starved for 16-24 hours in whole media without the growth factors. After determining the viability of the cells, stock solutions (in whole media without the growth factors) are made to give about 10^5 cells per 50 microliters. […] Cells (50 microliters) are added to each well and the cells are incubated 24-48 hours, at which point the negative controls should die or be quiescent. Cell proliferation is then measured by techniques known in the art, such as an MTT assay which correlates with ^3 H-thymidine incorporation as an indication of cell proliferation (see, Mosmann (1983) J. Immnunol. Methods 65:55).
In addition, this peptide was preincubated with streptavidin in serum-free HEPES-buffered RPMI at a 4:1 molar ratio, as above. The complex was tested for stimulation of cell proliferation in an FDCP-1/hEPO-R bioassay alongside. free […] […]

The mark [5] stands for this setting: EPO-ED50 (μM), Tables 17-19, amount for half maximal level of EPO dependent proliferation.
[6] abbreviates: EPO-ED50 (μM)* murine receptor, Tables 20-21.

Like-named read-outs stand apart in the source and are kept apart here. Residues, ends and D or L forms follow the SMILES beside them.

The values below come from patent US5773569A (Affymax Technologies N.V., priority 1995, dated 1998).

As to RWJ 61721 (GGTYSEHFGPLTWVKKPQGG), in assay [1], the “Relative Binding” value was over 100.
Turning to `CC(C)C[C@@H]1NC(=O)[C@@H]2CCCN2C(=O)CNC(=O)[C@H](Cc2ccccc2)NC(=O)[C@H](Cc2c[nH]cn2)NC(=O)[C@@H](NC(=O)[C@H](CO)NC(=O)[C@H](Cc2ccc(O)cc2)NC(=O)[C@@H](NC(=O)CNC(=O)CN)[C@@H](C)O)CSSC[C@@H](C(=O)N[C@@H](CCCCN)C(=O)N2CCC[C@H]2C(=O)N[C@@H](CCC(N)=O)C(=O)NCC(=O)NCC(N)=O)NC(=O)[C@H](C(C)C)NC(=O)[C@H](Cc2ccccc2)NC(=O)[C@H]([C@@H](C)O)NC1=O` [RWJ 62145] (HELM PEPTIDE1{G.G.T.Y.S.C.H.F.G.P.L.T.F.V.C.K.P.Q.G.G.[am]}$PEPTIDE1,PEPTIDE1,6:R3-15:R3$$$V2.0), the EC50 amounted to 500 nM in assay [2] and 0.25 µM in assay [3] (setting [5]).
For the molecule `CC(=O)NCC(=O)NCC(=O)N[C@H](C(=O)N[C@@H](Cc1ccc(O)cc1)C(=O)N[C@@H](CO)C(=O)N[C@H]1CSSC[C@@H](C(=O)N[C@@H](CCCCN)C(=O)N2CCC[C@H]2C(=O)N[C@@H](CCC(N)=O)C(=O)NCC(=O)NCC(N)=O)NC(=O)[C@H](C(C)C)NC(=O)[C@H](Cc2c[nH]c3ccccc23)NC(=O)[C@H]([C@@H](C)O)NC(=O)[C@H](CC(C)C)NC(=O)[C@@H]2CCCN2C(=O)CNC(=O)[C@H](Cc2ccccc2)NC(=O)[C@H](Cc2c[nH]cn2)NC1=O)[C@@H](C)O` [RWJ 62146] (HELM PEPTIDE1{[ac].G.G.T.Y.S.C.H.F.G.P.L.T.W.V.C.K.P.Q.G.G.[am]}$PEPTIDE1,PEPTIDE1,7:R3-16:R3$$$V2.0), the concentration giving a half-maximal response (EC50) in assay [2] was found to be 60 nM; in assay [3] (setting [6]), 0.03 µM. In addition, the “Relative Binding” value in assay [1] stood at 4.
With `CSCC[C@@H]1NC(=O)[C@H](Cc2c[nH]cn2)NC(=O)[C@@H](NC(=O)[C@H](C)NC(=O)[C@H](Cc2ccc(O)cc2)NC(=O)[C@H](CC(C)C)NC(=O)CNC(=O)CN)CSSC[C@@H](C(=O)N[C@@H](CCC(N)=O)C(=O)N2CCC[C@H]2C(=O)N[C@@H](CC(C)C)C(=O)N[C@@H](CCCNC(=N)N)C(=O)NCC(N)=O)NC(=O)[C@H](C(C)C)NC(=O)[C@H](Cc2c[nH]c3ccccc23)NC(=O)[C@H]([C@@H](C)O)NC(=O)[C@H](CCSC)NC(=O)[C@@H]2CCCN2C(=O)CNC1=O` [RWJ 61718], the EC50 worked out at 80 nM in assay [2], 0.15 µM in assay [3] (setting [6]) and 0.1 µM in assay [3] (setting [5]).
For `CC(C)C[C@@H]1NC(=O)[C@@H]2CCCN2C(=O)CNC(=O)[C@H](Cc2ccccc2)NC(=O)[C@H](Cc2c[nH]cn2)NC(=O)[C@@H](NC(=O)[C@H](CO)NC(=O)[C@H](Cc2ccc(O)cc2)NC(=O)[C@@H](NC(=O)CNC(=O)CN)[C@@H](C)O)CSSC[C@@H](C(=O)N[C@@H](CCCCN)C(=O)N2CCC[C@H]2C(=O)N[C@@H](CCC(N)=O)C(=O)NCC(=O)NCC(N)=O)NC(=O)[C@H](C(C)C)NC(=O)[C@H](Cc2c[nH]c3ccccc23)NC(=O)[C@H]([C@@H](C)O)NC1=O` [RWJ 61233] (HELM PEPTIDE1{G.G.T.Y.S.C.H.F.G.P.L.T.W.V.C.K.P.Q.G.G.[am]}$PEPTIDE1,PEPTIDE1,6:R3-15:R3$$$V2.0), the EC50 in assay [2] was 100 nM; in assay [4], 400 nM; in assay [4] (EPO-ED50, FIG. 10), about 1000 nM; in assay [3] (setting [5]) it was 0.1 µM.
For the molecule `CC[C@H](C)[C@H](NC(=O)[C@H](Cc1ccc(O)cc1)NC(=O)[C@H](CCC(N)=O)NC(=O)[C@H](C)NC(=O)[C@@H](NC(=O)[C@@H](N)[C@@H](C)O)[C@@H](C)CC)C(=O)N[C@H]1CSSC[C@@H](C(=O)N[C@@H](CCCNC(=N)N)C(=O)N2CCC[C@H]2C(=O)N[C@@H](CO)C(=O)N2CCC[C@H]2C(=O)N[C@@H](CCCCN)C(=O)N[C@@H](C)C(N)=O)NC(=O)[C@H](CCC(=O)O)NC(=O)[C@H](Cc2c[nH]c3ccccc23)NC(=O)[C@H]([C@@H](C)O)NC(=O)[C@H](CCC(=O)O)NC(=O)[C@@H]2CCCN2C(=O)CNC(=O)[C@H](CCSC)NC(=O)[C@H](Cc2ccc(O)cc2)NC1=O` [AF11654] (HELM PEPTIDE1{T.I.A.Q.Y.I.C.Y.M.G.P.E.T.W.E.C.R.P.S.P.K.A.[am]}$PEPTIDE1,PEPTIDE1,7:R3-16:R3$$$V2.0), the EC50 in assay [2] was 20 nM; in assay [3] (setting [6]) it was 0.2 µM.

The EC50 is the concentration giving half of the maximal effect.
